Where only a bound is given, the exact number is not on record here.

One assay relates to vesicular monoamine transporter-2 (VMAT2).
Test: not given
As to conditions: read-out: IC50 catecholamine uptake by VMAT2; cited from earlier work.
Regarding `COc1cc2c(cc1OC)C1CC(=O)C(CC(C)C)CN1CC2` (stereo not shown) [Tetrabenazine, 3-Isobutyl-9,10-dimethoxy-1,3,4,6,7,11b-hexahydro-2H-pyrido[2,1-a]-isoquinolin-2-one], the IC50 is […].

The target of the next assay is VMAT2 (Homo sapiens (Human), UniProt Q05940). The assay can be described thus: VMAT2 radioligand binding assay: competition against 3H-dihydrotetrabenezine on human platelet homogenate (modified procedure). The following applies: 10 nM 3H-dihydrotetrabenezine, 25° C., 90 minutes. As to the method: Examples of techniques for determining the capability of a compound to inhibit VMAT2 are provided below. The procedure is adapted from that described previously (see, e.g., Near, (1986), Mol. Pharmacol. 30: 252-57; Teng, et al., J. Neurochem. 71, 258-65, 1998). Homogenates from human platelets or Sprague-Dawley rat forebrain were prepared by homogenization and then washed by centrifugation as described previously (see, e.g., Hoare et al., (2003) Peptides 24:1881-97). […] Following incubation at 25° C. for two hours, bound radioligand was collected by rapid filtration onto GF/B glass fiber filters using a Unifilter-96 Harvester (PerkinElmer). Filter plates were pre-treated for 10 minutes with 0.1% polyethylenimine, and following harvesting the filter plates were washed with 800 μl VMAT2 binding buffer. Bound radioligand was quantified by scintillation counting using a Topcount NXT (PerkinElmer).
VMAT2, sequence (Q05940 whole entry): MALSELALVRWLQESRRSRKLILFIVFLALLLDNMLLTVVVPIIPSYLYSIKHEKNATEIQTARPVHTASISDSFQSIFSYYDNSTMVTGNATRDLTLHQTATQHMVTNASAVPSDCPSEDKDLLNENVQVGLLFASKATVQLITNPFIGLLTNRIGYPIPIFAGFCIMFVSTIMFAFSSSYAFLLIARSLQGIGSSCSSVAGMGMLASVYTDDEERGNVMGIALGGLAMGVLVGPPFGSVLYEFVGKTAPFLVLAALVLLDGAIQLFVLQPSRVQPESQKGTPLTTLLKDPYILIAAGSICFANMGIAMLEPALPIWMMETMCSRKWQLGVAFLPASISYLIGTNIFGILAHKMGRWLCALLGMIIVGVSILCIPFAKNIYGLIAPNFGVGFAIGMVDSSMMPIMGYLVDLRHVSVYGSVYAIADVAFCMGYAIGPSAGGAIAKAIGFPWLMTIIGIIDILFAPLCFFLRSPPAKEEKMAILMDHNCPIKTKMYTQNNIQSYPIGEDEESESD
Following incubation at 25° C. for 90 minutes, bound radioligand was collected by rapid filtration onto GF/B glass fiber filters using a Unifilter-96 Harvester (PerkinElmer). Filter plates were pre-treated with 0.1% polyethylenimine and allowed to dry overnight, and following harvesting the filter plates were washed with 800 μl VMAT2 binding buffer. Bound radioligand was quantified by scintillation counting using a Topcount NXT (PerkinElmer).
In turn, `COc1cc2c(cc1OCCCF)CCN1C[C@@H](CC3CCC3)N(C)C[C@H]21` [Compound 8-1, (3R,11bS)-3-(cyclobutylmethyl)-9-(3-fluoropropoxy)-10-methoxy-2-methyl-1H,2H,3H,4H,6H,7H,11bH-piperazino[2,1-a]isoquinoline] gave an inhibition constant (Ki) of 10 to 500 nM.

Molecule `COc1cc2c(cc1OCC(F)(F)F)CCN1C[C@@H](CC3CCC3)N(C)C[C@H]21` [Compound 8-2, (3R,11bS)-3-(cyclobutylmethyl)-10-methoxy-2-methyl-9-(2,2,2-trifluoroethoxy)-1H,2H,3H,4H,6H,7H,11bH-piperazino[2,1-a]isoquinoline] gave a Ki of under 10 nM.

The molecule `COc1cc2c(cc1OCC1CC1(F)F)CCN1C[C@@H](CC3CCC3)N(C)C[C@H]21` (stereo partly drawn) [Compound 8-3, (3R,11bS)-3-(cyclobutylmethyl)-9-[(2,2-difluorocyclopropyl)methoxy]-10-methoxy-2-methyl-1H,2H,3H,4H,6H,7H,11bH-piperazino[2,1-a]isoquinoline] gave a Ki of 10 to 500 nM.

`COc1cc2c(cc1OCCF)CCN1C[C@@H](CC3CCC3)N(C)C[C@H]21` [Compound 8-4, (3R,11bS)-3-(cyclobutylmethyl)-9-(2-fluoroethoxy)-10-methoxy-2-methyl-1H,2H,3H,4H,6H,7H,11bH-piperazino[2,1-a]isoquinoline] gave a Ki of 10 to 500 nM.

On to `COc1cc2c(cc1OCC1CC1)CCN1C[C@@H](CC3CCC3)N(C)C[C@H]21` [Compound 8-5, (3R,11bS)-3-(cyclobutylmethyl)-9-(cyclopropylmethoxy)-10-methoxy-2-methyl-1H,2H,3H,4H,6H,7H,11bH-piperazino[2,1-a]isoquinoline], for which the Ki was in the range of 10 to 500 nM.

As for `COc1cc2c(cc1OCC1CCC1)CCN1C[C@@H](CC3CCC3)N(C)C[C@H]21` [Compound 8-6, (3R,11bS)-9-(cyclobutylmethoxy)-3-(cyclobutylmethyl)-10-methoxy-2-methyl-1H,2H,3H,4H,6H,7H,11bH-piperazino[2,1-a]isoquinoline], the Ki is under 10 nM.

Turning to `COc1cc2c(cc1OCCCC(F)(F)F)CCN1C[C@@H](CC3CCC3)N(C)C[C@H]21` [Compound 8-7, (3R,11bS)-3-(cyclobutylmethyl)-10-methoxy-2-methyl-9-(4,4,4-trifluorobutoxy)-1H,2H,3H,4H,6H,7H,11bH-piperazino[2,1-a]isoquinoline], the Ki lay within 10 to 500 nM.

The molecule `COc1cc2c(cc1OCCCCF)CCN1C[C@@H](CC3CCC3)N(C)C[C@H]21` [Compound 8-8, (3R,11bS)-3-(cyclobutylmethyl)-9-(4-fluorobutoxy)-10-methoxy-2-methyl-1H,2H,3H,4H,6H,7H,11bH-piperazino[2,1-a]isoquinoline] came in with a Ki of 10 to 500 nM.

Molecule `COc1cc2c(cc1OCCCF)CCN1C[C@@H](CC3CCC3)N(C)C[C@@H]21` [Compound 9-1, (3R,11bR)-3-(cyclobutylmethyl)-9-(3-fluoropropoxy)-10-methoxy-2-methyl-1H,2H,3H,4H,6H,7H,11bH-piperazino[2,1-a]isoquinoline] showed a Ki of over 500 nM.

Consider `COc1cc2c(cc1OCCCF)CCN1C[C@@H](CC(C)(C)C)N(C)C[C@H]21` [Compound 11-1, (3R,11bS)-3-(2,2-dimethylpropyl)-9-(3-fluoropropoxy)-10-methoxy-2-methyl-1H,2H,3H,4H,6H,7H,11bH-piperazino[2,1-a]isoquinoline], for which the Ki was under 10 nM.

Take `COc1cc2c(cc1OC)[C@H]1CN(C)[C@H](CC(C)(C)C)CN1CC2` [Compound 11-2, (3R,11bS)-3-(2,2-dimethylpropyl)-9,10-dimethoxy-2-methyl-1H,2H,3H,4H,6H,7H,11bH-piperazino[2,1-a]isoquinoline]: the Ki was under 10 nM.

The molecule `COc1cc2c(cc1OCC(F)(F)F)CCN1C[C@@H](CC(C)(C)C)N(C)C[C@H]21` [Compound 11-3, (3R,11bS)-3-(2,2-dimethylpropyl)-10-methoxy-2-methyl-9-(2,2,2-trifluoroethoxy)-1H,2H,3H,4H,6H,7H,11bH-piperazino[2,1-a]isoquinoline] had an inhibition constant Ki of under 10 nM.

The molecule `COc1cc2c(cc1OCC1CC1(F)F)CCN1C[C@@H](CC(C)(C)C)N(C)C[C@H]21` (stereo partly drawn) [Compound 11-4, (3R,11bS)-9-[(2,2-difluorocyclopropyl)methoxy]-3-(2,2-dimethylpropyl)-10-methoxy-2-methyl-1H,2H,3H,4H,6H,7H,11bH-piperazino[2,1-a]isoquinoline] gave a Ki of under 10 nM.

`COc1cc2c(cc1OCCC(F)(F)F)CCN1C[C@@H](CC(C)(C)C)N(C)C[C@H]21` [Compound 11-5, (3R,11bS)-3-(2,2-dimethylpropyl)-10-methoxy-2-methyl-9-(3,3,3-trifluoropropoxy)-1H,2H,3H,4H,6H,7H,11bH-piperazino[2,1-a]isoquinoline]: the Ki was under 10 nM.

The molecule `COc1cc2c(cc1OCCF)CCN1C[C@@H](CC(C)(C)C)N(C)C[C@H]21` [Compound 11-6, (3R,11bS)-3-(2,2-dimethylpropyl)-9-(2-fluoroethoxy)-10-methoxy-2-methyl-1H,2H,3H,4H,6H,7H,11bH-piperazino[2,1-a]isoquinoline] returned a Ki of under 10 nM.

In the case of `COc1cc2c(cc1OCC1CC1)CCN1C[C@@H](CC(C)(C)C)N(C)C[C@H]21` [Compound 11-7, (3R,11bS)-9-(cyclopropylmethoxy)-3-(2,2-dimethylpropyl)-10-methoxy-2-methyl-1H,2H,3H,4H,6H,7H,11bH-piperazino[2,1-a]isoquinoline], the inhibition constant Ki was under 10 nM.

As for `COc1cc2c(cc1OCC1CCC1)CCN1C[C@@H](CC(C)(C)C)N(C)C[C@H]21` [Compound 11-8, (3R,11bS)-9-(cyclobutylmethoxy)-3-(2,2-dimethylpropyl)-10-methoxy-2-methyl-1H,2H,3H,4H,6H,7H,11bH-piperazino[2,1-a]isoquinoline], the inhibition constant Ki is under 10 nM.

The molecule `COc1cc2c(cc1OCCCC(F)(F)F)CCN1C[C@@H](CC(C)(C)C)N(C)C[C@H]21` [Compound 11-9, (3R,11bS)-3-(2,2-dimethylpropyl)-10-methoxy-2-methyl-9-(4,4,4-trifluorobutoxy)-1H,2H,3H,4H,6H,7H,11bH-piperazino[2,1-a]isoquinoline] returned a Ki of under 10 nM.

`COc1cc2c(cc1OCCCCF)CCN1C[C@@H](CC(C)(C)C)N(C)C[C@H]21` [Compound 11-10, (3R,11bS)-3-(2,2-dimethylpropyl)-9-(4-fluorobutoxy)-10-methoxy-2-methyl-1H,2H,3H,4H,6H,7H,11bH-piperazino[2,1-a]isoquinoline]: the Ki was under 10 nM.

Turning to `COCCOc1cc2c(cc1OC)[C@H]1CN(C)[C@H](CC(C)(C)C)CN1CC2` [Compound 11-11, (3R,11bS)-3-(2,2-dimethylpropyl)-10-methoxy-9-(2-methoxyethoxy)-2-methyl-1H,2H,3H,4H,6H,7H,11bH-piperazino[2,1-a]isoquinoline], the Ki fell in the range of 10 to 500 nM.

Regarding `CCOc1cc2c(cc1OC)[C@H]1CN(C)[C@H](CC(C)(C)C)CN1CC2` [Compound 11-12, (3R,11bS)-3-(2,2-dimethylpropyl)-9-ethoxy-10-methoxy-2-methyl-1H,2H,3H,4H,6H,7H,11bH-piperazino[2,1-a]isoquinoline], the Ki is under 10 nM.

As for `COc1cc2c(cc1OC(C)C)CCN1C[C@@H](CC(C)(C)C)N(C)C[C@H]21` [Compound 11-13, (3R,11bS)-3-(2,2-dimethylpropyl)-10-methoxy-2-methyl-9-(propan-2-yloxy)-1H,2H,3H,4H,6H,7H,11bH-piperazino[2,1-a]isoquinoline], the Ki was under 10 nM.

For `COc1cc2c(cc1OCCCF)CCN1C[C@@H](CC(C)(C)C)N(C)C[C@@H]21` [Compound 12-1, (3R,11bR)-3-(2,2-dimethylpropyl)-9-(3-fluoropropoxy)-10-methoxy-2-methyl-1H,2H,3H,4H,6H,7H,11bH-piperazino[2,1-a]isoquinoline], the Ki lay in the range of 10 to 500 nM.

In the case of `COc1cc2c(cc1OC)[C@@H]1CN(C)[C@H](CC(C)(C)C)CN1CC2` [Compound 12-2, (3R,11bR)-3-(2,2-dimethylpropyl)-9,10-dimethoxy-2-methyl-1H,2H,3H,4H,6H,7H,11bH-piperazino[2,1-a]isoquinoline], the Ki was over 500 nM.
